# Test results reported in patent US6399654B1, “Biflavanoids and derivatives thereof as antiviral agents” (priority 1995, dated 2002).
# Where “and” joins values, the source holds several entries; their conditions need not be identical. Identical values can stand only once. Like-named read-outs stand apart in the source and are kept apart here.
# Tests used:
# [1] = in vitro; details: human
# [2] = test system: Influenza A (H3N2) Beijing/32/92; assay: microbe, parasite or virus in culture; format: cell-based, influenza A virus; details: Influenza A virus, MDCK; Influenza A (H3N2) Beijing/32/92; read-out: CPE Inhibition EC50
# [3] = test system: Adenovirus Type 5; assay: microbe, parasite or virus in culture; format: cell-based; details: Human mastadenovirus C, A549, read-out: CPE Inhibition EC50
# [4] = test system: Respiratory Syncytial Virus; assay: microbe, parasite or virus in culture; format: cell-based; details: human respiratory syncytial virus, MA104; read-out: Neutral Red EC50
# [5] = test system: human PBM cells
# [6] = test system: Hepatitis B Virus (HBV); assay: Inhibition of HBV replication in 2.2.15 cells, extracellular (virion) HBV DNA; details: Hepatitis B virus, 216 h;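 further: extracellular virion HBV DNA in culture medium measured by slot blot hybridization with a 32P-labeled HBV probe, quantified against HBV DNA standards, after 9 days of daily dosing, compared with day 0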
# [7] = test system: HSV-2; assay: HSV-2 CPE inhibition in HFF cells
# [8] = in vitro; details: African green monkey, Neutral Red IC50 (cytotoxic)
# [9] = test system: Influenza A (H1N1) Texas/36/91; assay: microbe, parasite or virus in culture; format: cell-based, influenza A virus; details: Influenza A virus, MDCK; Influenza A (H1N1) Texas/36/91; read-out: Neutral Red EC50
# [10] = test system: Adenovirus Type 5; assay: Adenovirus type 5 neutral red dye uptake in A549 cells; format: cell-based; details: Human mastadenovirus C, A549, read-out: Neutral Red EC50
# [11] = in vitro; details: dog, Neutral Red IC50 (cytotoxic)
# [12] = test system: VZV; assay: VZV plaque reduction assay in HFF cells
# [13] = test system: African green monkey kidney (MA-104) cells
# [14] = in vitro; details: dog
# [15] = test system: Parainfluenza Type 3 Virus; assay: organism not typed; format: cell-based; details: MA104, read-out: Neutral Red EC50
# [16] = test system: HSV-1; assay: HSV-1 CPE inhibition in HFF cells
# [17] = test system: Influenza B Panama/45/90; assay: microbe, parasite or virus in culture; format: cell-based; details: Influenza B virus, MDCK, read-out: Neutral Red EC50
# [18] = in vitro; details: human; remark: listed apart in the source
# [19] = in vitro; details: African green monkey
# [20] = test system: Influenza A (H1N1) Texas/36/91; assay: microbe, parasite or virus in culture; format: cell-based, influenza A virus; details: Influenza A virus, MDCK; Influenza A (H1N1) Texas/36/91; read-out: CPE Inhibition EC50
# [21] = test system: HIV-1 (strain LAV-1); assay: microbe, parasite or virus in culture; format: cell-based
# [22] = test system: Measles Virus; assay: microbe, parasite or virus in culture; format: cell-based; details: Measles morbillivirus, BSC-1; Measles Virus; read-out: CPI Inhibition EC50
# [23] = test system: Measles Virus; assay: Measles virus neutral red dye uptake in BSC-1 cells; format: cell-based; details: Measles morbillivirus, BSC-1
# [24] = target: T1, HIV-1 RT (Human immunodeficiency virus type 1 group M subtype B, UniProt P03366); assay: Anti-HIV-1 RT assay (recombinant enzyme); format: biochemical
# T1 construct: made in house; host or cells: Escherichia coli
# [25] = test system: HCMV; assay: HCMV CPE inhibition in HFF cells
# [26] = test system: Influenza B Panama/45/90; assay: microbe, parasite or virus in culture; format: cell-based; details: Influenza B virus, MDCK, read-out: CPE Inhibition EC50
# [27] = test system: Parainfluenza Type 3 Virus; assay: organism not typed; format: cell-based; details: MA104; Parainfluenza Type 3 Virus; read-out: CPI Inhibition EC50
# [28] = test system: Influenza A (H3N2) Beijing/32/92; assay: microbe, parasite or virus in culture; format: cell-based, influenza A virus; details: Influenza A virus, MDCK; Influenza A (H3N2) Beijing/32/92; read-out: Neutral Red EC50
structure (smiles),measurement,setting,value
"O=c1cc(-c2ccc(Oc3c(O)cc4oc(-c5ccc(O)cc5)cc(=O)c4c3O)cc2)oc2cc(O)cc(O)c12 [Hinokiflavone (4), hinokiflavone]",IC50,[1],9.1 µM
same,EC50,[2],> 3.2 µg/mL
same,EC50,[3],> 10 µg/mL
same,EC50,[4],> 3.2 µg/mL
same,toxicity against uninfected PHA-stimulated human PBM cells (in words),[5],high toxicity
same,EC50,"[6]; read-out: EC50 (50% effective dose), HBV Virion, 2.2.15 cells, extracellular (virion) HBV DNA, 9 days treatment",> 100 µM
same,EC90,"[6]; read-out: EC90 (90% effective dose), HBV Virion, 2.2.15 cells, extracellular (virion) HBV DNA, 9 days treatment",> 100 µM
same,HSV-2 SI (CC50/EC50),[7]; HFF Cells,<319
same,EC50,"[7]; Human alphaherpesvirus 2, HFF, read-out: HSV-2 CPE Inhibition EC50",> 20 µg/mL
same,IC50,[8],6 µg/mL
same,EC50,[9],1.8 µg/mL
same,EC50,[10],19 µg/mL
same,IC50,[11]; Influenza A (H1N1) test,2 µg/mL
same,IC50,[11]; Influenza A (H3N2) test,2.2 µg/mL
same,IC50,[11]; Influenza B test,2 µg/mL
same,VZV SI (CC50/EC50),[12]; HFF Cells,<4.2
same,EC50,"[12]; Human alphaherpesvirus 3, HFF, read-out: VZV Plaque Reduction EC50",> 4 µg/mL
same,Neutral Red IC50 (cytotoxic),[13],7 µg/mL
same,IC50,"[14]; CPE Inhibition IC50 (50% cell inhibitory (cytotoxic) concentration), Influenza A (H1N1) test",1.4 µg/mL
same,IC50,"[14]; CPE Inhibition IC50 (cytotoxic), Influenza A (H3N2) test",1.3 µg/mL
same,IC50,"[14]; CPE Inhibition IC50 (cytotoxic), Influenza B test",1.2 µg/mL
same,EC50,[15],5 µg/mL
same,HSV-1 SI (CC50/EC50),[16]; HFF Cells,<3.9
same,EC50,"[16]; Human alphaherpesvirus 1, HFF, read-out: HSV-1 CPE Inhibition EC50",> 20 µg/mL
same,EC50,[17],1.9 µg/mL
same,CC50 at 14 days,[18]; HCMV CPE Inhibition CC50,2.6 µg/mL
same,CC50 at 3 days,[18]; HSV-1 CPE Inhibition CC50,77.7 µg/mL
same,CC50 at 3 days,[18]; HSV-2 CPE Inhibition CC50,77.5 µg/mL
same,CC50 at 10 days,[18]; VZV Plaque Reduction CC50,16.8 µg/mL
same,IC50,"[19]; CPE Inhibition IC50 (cytotoxic), Respiratory Syncytial Virus test",2.5 µg/mL
same,IC50,"[19]; CPI Inhibition IC50 (cytotoxic), Parainfluenza Type 3 Virus test",1 µg/mL
same,EC50,[20],> 1 µg/mL
same,EC50,"[21]; Human immunodeficiency virus 1, PBMC, human PBM cells infected with HIV-1 (strain LAV), read-out: Ant-HIV-1 in PBM cells EC50",4.1 µM
same,Selective Index (SI),[21]; PBM cells,<1
same,EC50,[22],< 3 µg/mL
same,EC50,[23],< 5 µg/mL
same,IC50,"[24]; Anti-HIV-1 RT IC50, values in parentheses or in words",62 µM
same,IC50,[24]; HIV-1 RT IC50 (50% inhibition dose),65.4 µM and 62.6 µM
same,inhibition at 200 µg/mL,[24]; read-out: Anti-HIV-1 RT % Inhibition at 200 μg/ml,89%
same,HCMV SI (CC50/EC50),[25]; HFF Cells,<3.2
same,EC50,"[25]; Human betaherpesvirus 5, HFF, read-out: HCMV CPE Inhibition EC50",> 0.8 µg/mL
same,EC50,[26],> 1 µg/mL
same,EC50,[27],> 1 µg/mL
same,EC50,[28],1.9 µg/mL
